What was measured:
Type in all cases: in vivo
[1] = test system: redroot pigweed (Amaranthus retroflexus, AMARE); assay: Pre-emerge test, greenhouse herbicide activity screening; conditions: phytotoxicity rating 0-100, 14 days after application
Procedure, shortened: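 Plants grown in 10 cm pots of sandy loam mix received acetone-dissolved compounds through a moving flat-fan nozzle. Doses ranged from 15 to 1000 g ai/ha. Pre-emerge pots were seeded one day earlier, post-emerge pots 8–21 days earlier. Fourteen days on, each pot was graded 0–100 for damage.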

[2] = test system: barnyardgrass (Echinochloa crus-galli, ECHCG); assay: as above; conditions: phytotoxicity rating 0-100, 14 days after application
Procedure, shortened: (§1)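 Herbicidal damage is scored 0 (none) to 100 (complete plant death) two weeks after a simulated field spray. Rates span 15–1000 g ai/ha, delivered in acetone at 187 l/ha. For post-emergence treatments, plants have 2–3 leaves and the spray carries 0.25% v/v non-ionic surfactant.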

[3] = test system: green foxtail (Setaria viridis, SETVI); assay: as above; conditions: phytotoxicity rating 0-100, 14 days after application
Procedure, shortened: as §1

[4] = test system: ivyleaf morningglory (Ipomoea hederacea, IPOHE); assay: as above; conditions: phytotoxicity rating 0-100, 14 days after application
Procedure, shortened: as §1

[5] = test system: johnsongrass (Sorghum halepense, SORHA); assay: as above; conditions: phytotoxicity rating 0-100, 14 days after application
Procedure, shortened: as §1

[6] = test system: lambsquarters (Chenopodium album, CHEAL); assay: as above; conditions: phytotoxicity rating 0-100, 14 days after application
Procedure, shortened: as §1

[7] = test system: large crabgrass (Digitaria sanguinalis, DIGSA); assay: as above; conditions: phytotoxicity rating 0-100, 14 days after application
Procedure, shortened: as §1

[8] = test system: sicklepod (Cassia obtusifolia, CASOB); assay: as above; conditions: phytotoxicity rating 0-100, 14 days after application
Procedure, shortened: as §1

[9] = test system: velvetleaf (Abutilon theophrasti, ABUTH); assay: as above; conditions: phytotoxicity rating 0-100, 14 days after application
Procedure, shortened: as §1

[10] = test system: field corn (Zea mays L., var. Dekalb 535, CORN); assay: Pre-emerge test, crop safety; conditions: crop damage rating 0-100, 14 days after application
Procedure, shortened: (§2)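 Sandy loam pots; pre-emerge: sown 1 d pre-spray, surface-watered after, then bottom-watered. Post-emerge: sown 8–21 d before, 2–3 leaf stage, + 0.25% v/v NIS, bottom-watered. Acetone, 187 l/ha track spray, 15–1000 g ai/ha. 0–100 injury score, day 14.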

[11] = test system: upland rice (Oryza sp., var. Tebonnet, RICE); assay: Pre-emerge test, crop safety; conditions: crop damage rating 0-100, 14 days after application
Procedure, shortened: as §2

[12] = test system: green foxtail (Setaria viridis, SETVI); assay: Post-emerge test, greenhouse herbicide activity screening; conditions: post-emerge, 14 days after application, rating scale 0-100
Procedure, shortened: (§3)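 Compounds in acetone were track-sprayed at 187 l/ha, 15–1000 g ai/ha, onto sandy loam pots. Pre-emerge seeds were sown one day before spraying, with surface watering afterwards. Post-emerge plants were at the 2–3 leaf stage and sprayed with 0.25% v/v non-ionic surfactant. Injury was rated 0–100 at 14 days.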

[13] = test system: ivyleaf morningglory (Ipomoea hederacea, IPOHE); assay: as above; conditions: post-emerge, 14 days after application, rating scale 0-100
Procedure, shortened: as §3

[14] = test system: johnsongrass (Sorghum halepense, SORHA); assay: as above; conditions: post-emerge, 14 days after application, rating scale 0-100
Procedure, shortened: as §3

[15] = test system: lambsquarters (Chenopodium album, CHEAL); assay: as above; conditions: post-emerge, 14 days after application, rating scale 0-100
Procedure, shortened: as §3

[16] = test system: large crabgrass (Digitaria sanguinalis, DIGSA); assay: as above; conditions: post-emerge, 14 days after application, rating scale 0-100
Procedure, shortened: as §3

[17] = test system: redroot pigweed (Amaranthus retroflexus, AMARE); assay: as above; conditions: post-emerge, 14 days after application
Procedure, shortened: as §3

[18] = test system: sicklepod (Cassia obtusifolia, CASOB); assay: as above; conditions: post-emerge, 14 days after application, rating scale 0-100
Procedure, shortened: as §3

[19] = test system: velvetleaf (Abutilon theophrasti, ABUTH); assay: as above; conditions: post-emerge, 14 days after application, rating scale 0-100
Procedure, shortened: as §3

[20] = test system: field corn (Zea mays L., var. Dekalb 535, CORN); assay: Post-emerge test, crop safety; conditions: post-emerge, 14 days after application, rating scale 0-100
Procedure, shortened: as §1

[21] = test system: upland rice (Oryza sp., var. Tebonnet, RICE); assay: Post-emerge test, crop safety; conditions: post-emerge, 14 days after application, rating scale 0-100
Procedure, shortened: as §1

Question: With `COc1c(Cl)cc(F)c(-n2c(=O)cc(C(F)(F)F)n(C)c2=O)c1NC(=O)Oc1c(C)cc(C)cc1C` [4-25] as the molecule, how does the “Pre-emerge Herbicidal Activity AMARE” value ([1]; 63 g ai/ha) read?
Answer: 30

Question: What about the “Pre-emerge Herbicidal Activity AMARE” value ([1]; 250 g ai/ha) of the same molecule?
Answer: 100

Question: And the “Pre-emerge Herbicidal Activity ECHCG” value ([2]; 63 g ai/ha)?
Answer: 0

Question: What about the “Pre-emerge Herbicidal Activity ECHCG” value ([2]; 250 g ai/ha) of the same molecule?
Answer: 0

Question: And the “Pre-emerge Herbicidal Activity SETVI” value ([3]; 63 g ai/ha)?
Answer: 0

Question: What about the “Pre-emerge Herbicidal Activity SETVI” value ([3]; 250 g ai/ha) of the same molecule?
Answer: 50

Question: And the “Pre-emerge Herbicidal Activity IPOHE” value ([4]; 63 g ai/ha)?
Answer: 0

Question: What about the “Pre-emerge Herbicidal Activity IPOHE” value ([4]; 250 g ai/ha) of the same molecule?
Answer: 0

Question: What about the “Pre-emerge Herbicidal Activity SORHA” value ([5]; 63 g ai/ha) of the same molecule?
Answer: 0

Question: What about the “Pre-emerge Herbicidal Activity SORHA” value ([5]; 250 g ai/ha) of the same molecule?
Answer: 0

Question: What about the “Pre-emerge Herbicidal Activity CHEAL” value ([6]; 63 g ai/ha) of the same molecule?
Answer: 60

Question: And the “Pre-emerge Herbicidal Activity CHEAL” value ([6]; 250 g ai/ha)?
Answer: 100

Question: What about the “Pre-emerge Herbicidal Activity DIGSA” value ([7]; 63 g ai/ha) of the same molecule?
Answer: 0

Question: What about the “Pre-emerge Herbicidal Activity DIGSA” value ([7]; 250 g ai/ha) of the same molecule?
Answer: 10

Question: And the “Pre-emerge Herbicidal Activity CASOB” value ([8]; 63 g ai/ha)?
Answer: 0

Question: And the “Pre-emerge Herbicidal Activity CASOB” value ([8]; 250 g ai/ha)?
Answer: 20

Question: And the “Pre-emerge Herbicidal Activity ABUTH” value ([9]; 63 g ai/ha)?
Answer: 0

Question: What about the “Pre-emerge Herbicidal Activity ABUTH” value ([9]; 250 g ai/ha) of the same molecule?
Answer: 60

Question: What about the “Pre-emerge Herbicidal Activity CORN” value ([10]; 63 g ai/ha) of the same molecule?
Answer: 0

Question: And the “Pre-emerge Herbicidal Activity CORN” value ([10]; 250 g ai/ha)?
Answer: 0

Question: What about the “Pre-emerge Herbicidal Activity RICE” value ([11]; 63 g ai/ha) of the same molecule?
Answer: 0

Question: And the “Pre-emerge Herbicidal Activity RICE” value ([11]; 250 g ai/ha)?
Answer: 0

Question: What about the “phytotoxicity rating SETVI” value ([12]; 63 g ai/ha) of the same molecule?
Answer: 20

Question: What about the “phytotoxicity rating SETVI” value ([12]; 250 g ai/ha) of the same molecule?
Answer: 30

Question: And the “phytotoxicity rating IPOHE” value ([13]; 63 g ai/ha)?
Answer: 40

Question: What about the “phytotoxicity rating IPOHE” value ([13]; 250 g ai/ha) of the same molecule?
Answer: 60

Question: And the “phytotoxicity rating SORHA” value ([14]; 63 g ai/ha)?
Answer: 0

Question: And the “phytotoxicity rating SORHA” value ([14]; 250 g ai/ha)?
Answer: 10

Question: What about the “phytotoxicity rating CHEAL” value ([15]; 63 g ai/ha) of the same molecule?
Answer: 75

Question: And the “phytotoxicity rating CHEAL” value ([15]; 250 g ai/ha)?
Answer: 85

Question: What about the “phytotoxicity rating DIGSA” value ([16]; 63 g ai/ha) of the same molecule?
Answer: 0

Question: And the “phytotoxicity rating DIGSA” value ([16]; 250 g ai/ha)?
Answer: 0

Question: And the “phytotoxicity rating AMARE” value ([17]; 63 g ai/ha, rating scale 0-100 (0 no damage, 100 complete death))?
Answer: 70

Question: What about the “phytotoxicity rating AMARE” value ([17]; 250 g ai/ha, rating scale 0-100) of the same molecule?
Answer: 100

Question: What about the “phytotoxicity rating CASOB” value ([18]; 63 g ai/ha) of the same molecule?
Answer: 20

Question: And the “phytotoxicity rating CASOB” value ([18]; 250 g ai/ha)?
Answer: 30

Question: And the “phytotoxicity rating ABUTH” value ([19]; 63 g ai/ha)?
Answer: 70

Question: What about the “phytotoxicity rating ABUTH” value ([19]; 250 g ai/ha) of the same molecule?
Answer: 95

Question: What about the “phytotoxicity rating CORN (crop damage)” value ([20]; 63 g ai/ha) of the same molecule?
Answer: 5

Question: What about the “phytotoxicity rating CORN (crop damage)” value ([20]; 250 g ai/ha) of the same molecule?
Answer: 15

Question: What about the “phytotoxicity rating RICE (crop damage)” value ([21]; 63 g ai/ha) of the same molecule?
Answer: 0

Question: What about the “phytotoxicity rating RICE (crop damage)” value ([21]; 250 g ai/ha) of the same molecule?
Answer: 20
